# In patent US20220386606A1, “SPECIFICALLY SUBSTITUTED 3-PHENYL-5-SPIROCYCLOPENTYL-3-PYRROLIN-2-ONES AND THEIR USE AS HERBICIDES” (Bayer Aktiengesellschaft, priority 2019, published 2022):
# Key:
# [1] = test system: VERPE; assay: Post-emergence herbicidal action against VERPE; type: in vivo, Veronica persica; settings: 80 g/ha, visual assessment about 3 weeks after treatment vs untreated controls
# Description: (§1) Seeds of monocotyledonous and dicotyledonous weed and crop plants are laid out in sandy loam soil in wood-fiber pots, covered with soil and cultivated in a greenhouse under good growth conditions. 2 to 3 weeks after sowing, the test plants are treated at the one-leaf stage. The compounds of the invention, formulated in the form of wettable powders (WP) or as emulsion concentrates (EC), are then sprayed onto the green parts of the plants as aqueous suspension or emulsion at a water application rate equating to 600 to 800 l/ha with addition of 0.2% wetting agent. After the test plants have been left to stand in the greenhouse under optimal growth conditions for about 3 weeks, the action of the preparations is assessed visually in comparison to untreated controls (herbicidal action in percent (%): 100% activity=the plants have died, 0% activity=like control plants).
# [2] = test system: ALOMY; assay: Pre-emergence herbicidal action against ALOMY; type: in vivo, Alopecurus myosuroides; settings: 320 g/ha, scored visually after 3 weeks vs untreated controls
# How it was run: (§2)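 Sandy loam, wood-fiber pots, seeds covered with soil. Spray onto soil surface: aqueous WP/EC, 600 to 800 L/ha, 0.2% wetting agent. Greenhouse 3 weeks; visual % score vs untreated controls.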
# [3] = test system: LOLRI; assay: Post-emergence herbicidal action against LOLRI; type: in vivo, Lolium rigidum; settings: 80 g/ha, visual assessment about 3 weeks after treatment vs untreated controls
# How it was run: (§3)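 Greenhouse post-emergence test; one-leaf stage (2–3 wk post-sowing), sandy loam. Spray: WP/EC in water, 600–800 l/ha, 0.2% wetting agent, onto green parts. Visual rating ~3 wk later, % vs untreated (100% = dead, 0% = like control).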
# [4] = test system: ALOMY; assay: Post-emergence herbicidal action against ALOMY; type: in vivo, Alopecurus myosuroides; settings: 80 g/ha, visual assessment after about 3 weeks
# How it was run: as §3
# [5] = test system: ECHCG; assay: Post-emergence herbicidal action against ECHCG; type: in vivo, Echinochloa crus-galli; settings: 80 g/ha, visual assessment about 3 weeks after treatment vs untreated controls
# How it was run: as §3
# [6] = test system: ECHCG; assay: Pre-emergence herbicidal action against ECHCG; type: in vivo, Echinochloa crus-galli; settings: 320 g/ha, scored visually after 3 weeks vs untreated controls
# How it was run: as §2
# [7] = test system: VIOTR; assay: Pre-emergence herbicidal action against VIOTR; type: in vivo, Viola tricolor; settings: 320 g/ha
# How it was run: as §2
# [8] = test system: SETVI; assay: Post-emergence herbicidal action against SETVI; type: in vivo, Setaria viridis; settings: 80 g/ha, visual assessment about 3 weeks after treatment vs untreated controls
# How it was run: as §3
# [9] = test system: LOLRI; assay: Pre-emergence herbicidal action against LOLRI (Table 8, titled post-emergence at 320 g/ha); type: in vivo, Lolium rigidum; settings: table stands in the pre-emergence section
# How it was run: as §2
# [10] = test system: SETVI; assay: Pre-emergence herbicidal action against SETVI; type: in vivo, Setaria viridis; settings: 320 g/ha, scored visually after 3 weeks vs untreated controls
# How it was run: as §2
# [11] = test system: POLCO; assay: Post-emergence herbicidal action against POLCO; type: in vivo, Polygonum convolvulus; settings: 80 g/ha, visual assessment about 3 weeks after treatment vs untreated controls
# Description: as §1
# [12] = test system: DIGSA; assay: Pre-emergence herbicidal action against DIGSA; type: in vivo, Digitaria sanguinalis; settings: 320 g/ha, scored visually after 3 weeks vs untreated controls
# How it was run: as §2
# [13] = test system: AVEFA; assay: Pre-emergence herbicidal action against AVEFA; type: in vivo, Avena fatua; settings: 320 g/ha, scored visually after 3 weeks vs untreated controls
# How it was run: as §2
# [14] = test system: VERPE; assay: Pre-emergence herbicidal action against VERPE; type: in vivo, Veronica persica; settings: 320 g/ha
# How it was run: as §2
# [15] = test system: DIGSA; assay: Post-emergence herbicidal action against DIGSA; type: in vivo, Digitaria sanguinalis; settings: 80 g/ha, visual assessment about 3 weeks after treatment vs untreated controls
# How it was run: as §3
# [16] = test system: PHBPU; assay: Pre-emergence herbicidal action against PHBPU; type: in vivo; settings: scored visually after 3 weeks, 100% = plants have died, 0% = like control plants
# From the text: Seeds of monocotyledonous and dicotyledonous weed plants and crop plants are laid out in sandy loam soil in wood-fiber pots and covered with soil. The compounds of the invention, formulated in the form of wettable powders (WP) or as emulsion concentrates (EC), are then applied to the surface of the covering soil as aqueous suspension or emulsion at a water application rate equating to 600 to 800 L/ha with addition of 0.2% wetting agent.
# After the treatment, the pots are placed in a greenhouse and kept under good growth conditions for the trial plants. The damage to the test plants is scored visually after a test period of 3 weeks by comparison with untreated controls (herbicidal activity in percent (%): 100% activity=the plants have died, 0% activity=like control plants).
# [17] = test system: MATIN; assay: Pre-emergence herbicidal action against MATIN; type: in vivo; settings: 320 g/ha
# How it was run: as §2
# [18] = test system: ABUTH; assay: Post-emergence herbicidal action against ABUTH; type: in vivo, Abutylon threophrasti; settings: 80 g/ha, visual assessment about 3 weeks after treatment vs untreated controls
# How it was run: as §3
# [19] = test system: AMARE; assay: Pre-emergence herbicidal action against AMARE; type: in vivo, Amaranthus retroflexus; settings: 320 g/ha
# How it was run: as §2
# [20] = test system: POLCO; assay: Pre-emergence herbicidal action against POLCO; type: in vivo, Polygonum convolvulus; settings: 320 g/ha
# How it was run: as §2
# [21] = test system: ABUTH; assay: Pre-emergence herbicidal action against ABUTH; type: in vivo, Abutylon threophrasti; settings: 320 g/ha
# How it was run: as §2
# [22] = test system: PHBPU; assay: Post-emergence herbicidal action against PHBPU; type: in vivo; settings: assessed visually after about 3 weeks, 100% = plants have died, 0% = like control plants
# Description: as §1
# [23] = test system: VIOTR; assay: Post-emergence herbicidal action against VIOTR; type: in vivo, Viola tricolor; settings: 80 g/ha, visual assessment about 3 weeks after treatment vs untreated controls
# How it was run: as §3
# [24] = test system: HORMU; assay: Post-emergence herbicidal action against HORMU; type: in vivo, Hordeum murinum; settings: 80 g/ha, visual assessment about 3 weeks after treatment vs untreated controls
# How it was run: as §3
# [25] = test system: AVEFA; assay: Post-emergence herbicidal action against AVEFA; type: in vivo, Avena fatua; settings: 80 g/ha, visual assessment after about 3 weeks
# How it was run: as §3
Compound,Pre-emergence action against ALOMY in % [2] [%],Post-emergence action against LOLRI in % [3] [%],Post-emergence action against ALOMY in % [4] [%],Post-emergence action against ECHCG in % [5] [%],Pre-emergence action against ECHCG in % [6] [%],Pre-emergence action against VIOTR in % [7] [%],Post-emergence action against SETVI in % [8] [%],Pre-emergence herbicidal action against LOLRI in % [9] [%],Pre-emergence action against SETVI in % [10] [%],Post-emergence action against POLCO in % [11] [%],Pre-emergence action against DIGSA in % [12] [%],Pre-emergence action against AVEFA in % [13] [%],Post-emergence action against DIGSA in % [15] [%],Post-emergence action against ABUTH in % [18] [%],Pre-emergence action against AMARE in % [19] [%],Pre-emergence action against POLCO in % [20] [%],Pre-emergence action against ABUTH in % [21] [%],other results
"CC#Cc1cc(Br)c(C2=C(O)[C@]3(CC[C@H](COCC)C3)NC2=O)c(OC)c1 (stereo in doubt) [Example I-11, 3-(2-Bromo-6-methoxy-4-prop-1-ynylphenyl)-8-(ethoxymethyl)-4-hydroxy-1-azaspiro[4.4]non-3-en-2-one]",100,100,100,100,100,90,100,100,100,80,100,100,100,–,–,–,–,Post-emergence action against VERPE in % [1]: 80%; Pre-emergence action against VERPE in % [14]: 100%
"CC#Cc1cc(Br)c(C2=C(OC(=O)OCC)[C@]3(CC[C@H](COCC)C3)NC2=O)c(OC)c1 (stereo in doubt) [Example P-13, [3-(2-Bromo-6-methoxy-4-prop-1-ynyl-phenyl)-8-(ethoxymethyl)-2-oxo-1-azaspiro[4.4]non-3-en-4-yl] ethyl carbonate]",100,100,100,100,100,100,100,100,100,–,100,100,100,80,90,80,–,Pre-emergence action at 320 g/ha against PHBPU in % [16]: 100%; Pre-emergence action against MATIN in % [17]: 80%
CC#Cc1cc(Br)c(C2=C(O)C3(CCC(COCC)C3)NC2=O)c(OC)c1 (stereo not drawn) [Example I-05],100,100,100,100,100,90,100,100,100,100,100,100,100,80,–,80,80,Post-emergence action at 80 g/ha against PHBPU in % [22]: 80%
CC#Cc1cc(Br)c(C2=C(O)C3(CCC(COC)C3)NC2=O)c(OC)c1 (stereo not drawn) [Example I-10],100,100,100,100,100,100,100,100,100,80,100,100,100,–,–,80,–,Pre-emergence action against VERPE in % [14]: 100%
CC#Cc1cc(C)c(C2=C(O)C3(CCC(COCCC)C3)NC2=O)c(Cl)c1 (stereo not drawn) [Example I-68],100,100,100,100,100,100,100,100,100,–,100,100,100,–,100,–,90,Post-emergence action against VIOTR in % [23]: 80%; Post-emergence action at 80 g/ha against PHBPU in % [22]: 80%; Pre-emergence action against MATIN in % [17]: 100%
CC#Cc1cc(C)c(C2=C(OC(=O)C(C)C)C3(CCC(COC)C3)NC2=O)c(Cl)c1 (stereo not drawn) [Example P-16],–,100,100,100,–,–,100,–,–,80,–,–,100,80,–,–,–,Post-emergence action against VIOTR in % [23]: 80%; Post-emergence action against HORMU in % [24]: 100%; Post-emergence action against AVEFA in % [25]: 100%
CC#Cc1cc(C)c(C2=C(OC(=O)OCC)C3(CCC(COC)C3)NC2=O)c(F)c1 (stereo not drawn) [Example P-51],100,100,100,100,100,100,–,100,100,80,100,80,100,80,90,90,80,Post-emergence action against AVEFA in % [25]: 100%
